Data taken from patent US20240317744A1, “Bicyclic Ureas As Kinase Inhibitors” (Incyte Corporation, priority 2023, published 2024).

Legend:
[1] = molecular target: T1, catalytic domain (JH1, amino acids 826-1132) of human JAK2 (Homo sapiens, UniProt O60674); assay: JAK2 LanthaScreen JH1 Binding Assay; details: JAK2 JH1 1.5 nM, 50 nM tracer, 2 hours at 25° C.; read-out: JH1 BIND
T1 construct: catalytic domain (JH1, amino acids 826-1132) of human JAK2; FLAG (N); biotin (biotinylated); purchased Carna Biosciences 08-445-20N; host or cells: baculovirus expression system
Method in brief: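 TR-FRET tracer-displacement format: compound IC50 from four-parameter curves after 2 h at 25° C. Reaction held 1.5 nM biotinylated, FLAG-tagged JH1 (aa 826-1132), 50 nM tracer, 0.5 nM Streptavidin-Tb, pH 7.5 Tris buffer; 2 mM ATP set nonspecific background.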

[2] = molecular target: T2, pseudo-kinase domain (JH2, amino-acids 536-812) of human Wild Type JAK2 (Homo sapiens, UniProt O60674, F794H/W659A/W777A); assay: JAK2 LanthaScreen JH2-WT Binding Assay; details: JAK2 JH2-WT 0.145 nM, 50 nM tracer, 1 hour at 25° C.; read-out: JH2 BIND WT
T2 construct: pseudo-kinase domain (JH2, amino-acids 536-812 with 3 surface mutations W659A, W777A, F794H); His (C); purchased BPS Bioscience 79463; host or cells: baculovirus expression system
Method in brief: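 Compounds, serially diluted, were mixed with 0.145 nM JH2 domain, 50 nM tracer and 0.25 nM streptavidin-Tb cryptate, then incubated 1 hour at 25° C before LanthaScreen reading. Wells containing 2 mM ATP defined non-specific binding. Four-parameter dose-response curves gave IC50.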

[3] = molecular target: T3, pseudo-kinase domain (JH2, amino-acids 536-812) of human V617F mutant JAK2 (Homo sapiens, UniProt O60674, F794H/V617F/W659A/W777A); assay: JAK2 LanthaScreen JH2-V617F Binding Assay; details: JAK2 JH2-V617F 0.26 nM, 50 nM tracer, 1 hour at 25° C.; read-out: JH2 BIND V617F
T3 construct: pseudo-kinase domain (JH2, amino-acids 536-812 with 3 surface mutations W659A, W777A, F794H); His (C); purchased BPS Bioscience 79498; host or cells: baculovirus expression system
Method in brief: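 This is a TR-FRET tracer-displacement format with a 1 h, 25 °C incubation. It combined 0.26 nM baculovirus-expressed biotinylated JH2-V617F, 50 nM fluorescent JAK2-JH2 tracer and 0.25 nM streptavidin-Tb cryptate in 50 mM Tris pH 7.5, 10 mM MgCl2, 5 mM DTT. Background came from 2 mM ATP, and IC50 values were from four-parameter dose-response fits.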

[4] = molecular target: catalytic domain (JH1, amino acids 808-1132) of human JAK2 (Homo sapiens, UniProt O60674); assay: JAK2 HTRF Enzyme Activity Assay; assay type: biochemical; details: ATP 30 µM, 60 minutes at 25° C.; read-out: V617F ENZ 30 UM
catalytic domain (JH1, amino acids 808-1132) of human JAK2, sequence (O60674 808-1132 limits assumed): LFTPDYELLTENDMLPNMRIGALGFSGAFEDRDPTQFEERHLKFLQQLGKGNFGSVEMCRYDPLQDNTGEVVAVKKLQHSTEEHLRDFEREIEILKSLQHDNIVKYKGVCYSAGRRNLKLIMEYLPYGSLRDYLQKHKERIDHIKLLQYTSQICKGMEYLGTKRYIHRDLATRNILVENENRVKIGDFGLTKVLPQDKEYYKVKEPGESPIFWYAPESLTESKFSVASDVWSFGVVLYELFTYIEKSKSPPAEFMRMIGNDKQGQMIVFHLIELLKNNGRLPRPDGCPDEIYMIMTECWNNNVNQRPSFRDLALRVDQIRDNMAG

T3 sequence (O60674 536-812 V617F/W659A/W777A/F794H): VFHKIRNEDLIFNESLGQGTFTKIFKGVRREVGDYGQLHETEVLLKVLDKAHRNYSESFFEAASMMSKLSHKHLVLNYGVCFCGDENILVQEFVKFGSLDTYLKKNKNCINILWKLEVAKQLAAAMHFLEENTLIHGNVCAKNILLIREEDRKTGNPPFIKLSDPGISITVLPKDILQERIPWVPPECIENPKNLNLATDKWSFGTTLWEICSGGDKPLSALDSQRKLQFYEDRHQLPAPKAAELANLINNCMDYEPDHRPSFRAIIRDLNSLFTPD
T1 sequence (O60674 826-1132): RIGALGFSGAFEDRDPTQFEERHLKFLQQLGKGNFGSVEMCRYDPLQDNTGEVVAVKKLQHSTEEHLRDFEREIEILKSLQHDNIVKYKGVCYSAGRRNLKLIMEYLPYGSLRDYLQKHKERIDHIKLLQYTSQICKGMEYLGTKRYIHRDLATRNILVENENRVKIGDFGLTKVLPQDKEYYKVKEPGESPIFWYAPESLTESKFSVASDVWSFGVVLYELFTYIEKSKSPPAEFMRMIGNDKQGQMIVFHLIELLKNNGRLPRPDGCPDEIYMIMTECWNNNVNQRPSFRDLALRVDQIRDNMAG
T2 sequence (O60674 536-812 W659A/W777A/F794H): as the sequence (O60674 536-812 V617F/W659A/W777A/F794H) above, with F82V counted along it

[2H]C([2H])([2H])n1c(=O)n([C@@H]2CC[C@@H](NC(=O)OC)C2)c2cc(Nc3ccc4c(n3)c(-c3cnn(C(F)(F)F)c3)nn4CC(C)(C)O)ncc21 [Example 118, Methyl ((1R,3R)-3-(6-((1-(2-hydroxy-2-methylpropyl)-3-(1-(trifluoromethyl)-1H-pyrazol-4-yl)-1H-pyrazolo[4,3-b]pyridin-5-yl)amino)-3-(methyl-d3)-2-oxo-2,3-dihydro-1H-imidazo[4,5-c]pyridin-1-yl)cyclopentyl)carbamate]
IC50 [1]: > 1000 nM | IC50 [2]: ≤ 10 nM | IC50 [3]: ≤ 10 nM | IC50 [4]: > 1000 nM

[2H]C([2H])([2H])n1c(=O)n([C@@H]2CC[C@](C)(NC(=O)C3CC3)C2)c2cc(Nc3ccc4c(n3)c(-c3cnn(C(F)(F)F)c3)nn4CC(C)(C)O)ncc21 [Example 119, N-((1S,3R)-3-(6-((1-(2-Hydroxy-2-methylpropyl)-3-(1-(trifluoromethyl)-1H-pyrazol-4-yl)-1H-pyrazolo[4,3-b]pyridin-5-yl)amino)-3-(methyl-d3)-2-oxo-2,3-dihydro-1H-imidazo[4,5-c]pyridin-1-yl)-1-methylcyclopentyl)cyclopropanecarboxamide]
IC50 [1]: > 1000 nM | IC50 [2]: ≤ 10 nM | IC50 [3]: ≤ 10 nM | IC50 [4]: > 1000 nM

[2H]C([2H])([2H])n1c(=O)n([C@H]2CC[C@@](C)(NC(=O)C3CC3)CC2)c2cc(Nc3ccc4c(n3)c(-c3cnn(C(F)(F)F)c3)nn4CC(C)(C)O)ncc21 [Example 120, N-((1s,4s)-4-(6-((1-(2-Hydroxy-2-methylpropyl)-3-(1-(trifluoromethyl)-1H-pyrazol-4-yl)-1H-pyrazolo[4,3-b]pyridin-5-yl)amino)-3-(methyl-d3)-2-oxo-2,3-dihydro-1H-imidazo[4,5-c]pyridin-1-yl)-1-methylcyclohexyl)cyclopropanecarboxamide]
IC50 [1]: > 1000 nM | IC50 [2]: ≤ 10 nM | IC50 [3]: ≤ 10 nM | IC50 [4]: > 1000 nM

[2H]C([2H])([2H])n1c(=O)n([C@@H]2CC[C@@H](NC(=O)OC)C2)c2cc(Nc3cc(C(=O)N4CCOCC4)c4cc(C)cc(C(F)(F)F)c4n3)ncc21 [Example 135, Methyl ((1R,3R)-3-(3-(methyl-d3)-6-((6-methyl-4-(morpholine-4-carbonyl)-8-(trifluoromethyl)quinolin-2-yl)amino)-2-oxo-2,3-dihydro-1H-imidazo[4,5-c]pyridin-1-yl)cyclopentyl)carbamate]
IC50 [1]: > 1000 nM | IC50 [2]: ≤ 10 nM | IC50 [3]: ≤ 10 nM | IC50 [4]: 500 to 1000 nM

[2H]C([2H])([2H])n1c(=O)n([C@@H]2CC[C@@H](NC(=O)OC)C2)c2cc(Nc3cc(C(C)(C)O)cc(-c4ncc(C(C)(C)O)s4)n3)ncc21 [Example 144, Methyl ((1R,3R)-3-(6-((4-(2-hydroxypropan-2-yl)-6-(5-(2-hydroxypropan-2-yl)thiazol-2-yl)pyridin-2-yl)amino)-3-(methyl-d3)-2-oxo-2,3-dihydro-1H-imidazo[4,5-c)pyridin-1-yl)cyclopentyl)carbamate]
IC50 [1]: > 1000 nM | IC50 [2]: ≤ 10 nM | IC50 [3]: ≤ 10 nM | IC50 [4]: > 1000 nM

[2H]C([2H])([2H])n1c(=O)n([C@@H]2CC[C@@H](NC(=O)OC)C2)c2cc(Nc3cc(C(C)(C)O)cc(-c4ncc(C(O)(C(F)(F)F)C(F)(F)F)s4)n3)ncc21 [Example 145, Methyl ((1R,3R)-3-(6-((6-(5-(1,1,1,3,3,3-hexafluoro-2-hydroxypropan-2-yl)thiazol-2-yl)-4-(2-hydroxypropan-2-yl)pyridin-2-yl)amino)-3-(methyl-d3)-2-oxo-2,3-dihydro-1H-imidazo[4,5-c]pyridin-1-yl)cyclopentyl)carbamate]
IC50 [1]: > 1000 nM | IC50 [2]: ≤ 10 nM | IC50 [3]: ≤ 10 nM | IC50 [4]: > 1000 nM
